Molecular target: T1, full-length human PKC-α enzyme (Homo sapiens, UniProt P17252)
T1 construct: performed using full-length human PKC-α enzyme (Upstate Biotechnology); purchased Upstate Biotechnology
Assay: Assessment of PKC-α Inhibitory Activity (MALDI-TOF kinase assay)
Format: biochemical
Details: full-length human PKC-α 0.12 μg/ml; ATP 45 μM; neurogranin 28-43 peptide 22 μM; 30 minute incubation at 24° C.; MALDI-TOF readout
Description: Measurement of PKC-α enzyme activity is performed using full-length human PKC-α enzyme (Upstate Biotechnology) at a final concentration of 0.12 μg/ml in a kinase assay buffer (0.09 mg/ml bovine serum albumin (BSA), 210 μM ethylenediaminetetraacetic acid (EDTA), 360 μM CaCl2, 1 mM Tris-HCl, pH=7.5, 0.5 mM MgCl2, 0.015 mg/ml phosphatidylserine and 0.015 mg/ml diacylglycerol). The reaction is initiated by addition of adenosine triphosphate (ATP; final concentration 45 μM) and a peptide substrate consisting of amino acids 28-43 (Ala-Ala-Lys-Ile-Gln-Ala-Ser-Phe-Arg-Gly-His-Met-Ala-Arg-Lys-Lys) of neurogranin (Promega; final concentration 22 μM). After a 30 minute incubation at 24° C. the reaction is terminated by adding 5 μL of the reaction mixture into 50 μL of MALDI matrix solution (5 mg/ml α-cyano-4-hydroxycinnamic acid in 50% Acetonitrile/H2O, 0.1% TFA, 5 mM ammonium phosphate). Two microliters of the stopped reaction mixture is transferred onto a MALDI-TOF mass spectrometer target plate.
All spectra are collected on an Applied Biosystems 4700 Proteomics Analyzer MALDI-TOF MS equipped with a Nd:YAG laser (355 nm, 3 ns pulse width, 200 Hz repetition rate) in negative ion reflector mode. The system is operated with 4700 Explorer software, version 3.0. Automated acquisition parameters are adjusted to capture and average only those individual spectra within defined success criteria. Specifically, signal intensities for the substrate peptide are set to a minimum threshold of 3000 counts and a maximum intensity of 65,000 counts. This ensured that neither null spectra nor saturated spectra are averaged into the final readout. Between 1000 and 1500 laser shots are averaged for each sample. Data are collected in triplicate from 3 successive days to capture the maximum variability related to preparation of enzyme reaction, transfer of samples to MALDI target plates, data collection, and data extraction.
The isotope cluster areas for each peptide substrate and product peaks are extracted into a Microsoft Excel worksheet from the 10×10 array of spectral data simultaneously using the automated analysis function provided within the 4700 Explore software. The isotope cluster area is defined by the software algorithm based on the molecular weight and the general elemental composition of the peptides. The percent conversion (% C) of substrate to product is calculated as the cluster area of the product (P) divided by the sum of the cluster areas of the substrate (S) and the product multiplied by 100 as represented by the following equation: […]
For dose-dependent inhibition studies, the inhibition is plotted as a % Maximal Activity (% MA). Equation one is a measure of the ratio of product to substrate then solving for the % C. However, to measure inhibition of the enzyme activity, one must measure the degree to which that activity (% C) is curtailed. Thus the dose-dependant inhibition data is plotted as % MA where the maximal activity is the % C measured in control reactions with no inhibitor as represented by the following equation: […]

| Structure (SMILES) | IC50 |
| --- | --- |
| CN(C)CCCNc1ccnc(Nc2cccc(Cl)c2)n1 [No. 3, N^2-(3-chlorophenyl)-N^4-[3-(dimethylamino)propyl]pyrimidine-2,4-diamine] | 312 nM |
| CN(C)CC(C)(C)CNc1ccnc(Nc2cccc(C(F)(F)F)c2)n1 [No. 75, N^4-[3-(dimethylamino)-2,2-dimethylpropyl]-N^2-[3-(trifluoromethyl)phenyl]pyrimidine-2,4-diamine] | 4 nM |
| CN(C)CCCCNc1ccnc(Nc2cccc(Cl)c2)n1 [No. 81, N^2-(3-chlorophenyl)-N^4-[4-(dimethylamino)butyl]pyrimidine-2,4-diamine] | 0.8 nM |
| CCN(CC)CCCNc1ccnc(Nc2cccc(Cl)c2)n1 [compound 6] | 1 nM |
| CN(C)CCCNc1ccnc(Nc2ccc(Cl)c(Cl)c2)n1 [compound 15] | 15 nM |
| Cc1ccc(Nc2nccc(NCCCN(C)C)n2)cc1Cl [compound 21] | 3 nM |
| CN(C)CCCNc1ccnc(Nc2cccc(Cl)c2F)n1 [compound 25] | 23 nM |
| CN(C)CCCNc1ccnc(Nc2ccc(F)c(Cl)c2)n1 [compound 27] | 8 nM |
| CN(C)CCCNc1ccnc(Nc2ccc(F)c(F)c2)n1 [compound 33] | 65 nM |
| CN(C)CCCNc1ccnc(Nc2cccc(C(F)(F)F)c2)n1 [compound 39] | 0.5 nM |

The next lines start with the values.

| IC50 | Structure (SMILES) |
| --- | --- |
| 3 nM | CN(C)CCCNc1ccnc(Nc2ccc(Cl)c(C(F)(F)F)c2)n1 [compound 45] |
| 14 nM | COc1cccc(Nc2nccc(NCCCN(C)C)n2)c1 [compound 51] |
| 40 nM | Cc1cccc(Nc2nccc(NCCCN(C)C)n2)c1 [compound 55] |
| 93 nM | Cc1cccc(Nc2nccc(NCCCN(C)C)n2)c1 [compound 58] |
| 83 nM | CN(C)CCNc1ccnc(Nc2cccc(Cl)c2)n1 [compound 69] |
| 12 nM | CN(C)CCCCNc1ccnc(Nc2cccc(Cl)c2)n1 [compound 81] |
| 0.4 nM | CN(C)CCCNc1ccnc(Nc2cccc(-c3ccccc3)c2)n1 [compound 87] |
| 48 nM | Cc1nc(-c2cccc(Nc3nccc(NCCCN(C)C)n3)c2)cs1 [compound 105] |
